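Protocol summary: plate cells (96-well), add compound at 5 concentrations, incubate 48 h, interpolate endpoints linearly. GI50 is the concentration that inhibits growth by half.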 Activity calls are given as the source filed them. No stated cut-off is given here; in the data, active = GI50 up to about 1.1 µM and inactive = higher.
What was measured:
Experiment in all cases: DTP human tumour cell line panel, 48 h
DLD-1 = tested on: DLD-1
DMS-114 = tested on: DMS-114
DMS-273 = tested on: DMS-273
HOP-18 = tested on: HOP-18
LXFL 529 = tested on: LXFL 529
M19-MEL = tested on: M19-MEL
RXF 631 = tested on: RXF 631
SNB-78 = tested on: SNB-78
XF498 = tested on: XF498

Compound	GI50 (DLD-1)	GI50 (DMS-114)	GI50 (DMS-273)	GI50 (HOP-18)	GI50 (LXFL 529)	GI50 (M19-MEL)	GI50 (RXF 631)	GI50 (SNB-78)	GI50 (XF498)
Cc1cc(Cl)ccc1NC(=O)/C(=N\NC(C)(C)C)C(C#N)c1nc(-c2ccc([N+](=O)[O-])cc2)cs1 (configuration not stated)	> 100 µM (inactive)	> 100 µM (inactive)	> 100 µM (inactive)	> 100 µM (inactive)	> 100 µM (inactive)	> 100 µM (inactive)	> 100 µM (inactive)	> 100 µM (inactive)	> 100 µM (inactive)
Cc1cc(Cl)cc2c1NC(=O)C2(O)CC(=O)c1ccc(Br)cc1 (configuration not stated)	50.8 µM (inactive)	34.8 µM (inactive)	47.8 µM (inactive)	–	68.9 µM (inactive)	22.5 µM (inactive)	> 71.3 µM (inactive)	–	30.2 µM (inactive)
CO[C@H](c1ccccc1)[C@H](C)N(C)c1ccc2ccccc2c1C1=NC(C)(C)CO1	13 µM (inactive)	12.1 µM (inactive)	19.2 µM (inactive)	17.1 µM (inactive)	14.9 µM (inactive)	15.3 µM (inactive)	15 µM (inactive)	–	17.1 µM (inactive)
CCOC(=O)c1c[nH]c2c(ccc3nn(C)nc32)c1=O	50.4 µM (inactive)	49.8 µM (inactive)	19.9 µM (inactive)	> 100 µM (inactive)	> 100 µM (inactive)	> 100 µM (inactive)	> 100 µM (inactive)	15.5 µM (inactive)	> 100 µM (inactive)
Cc1c(C(=O)CC(=O)C(=O)Nc2ccc(Cl)c(Cl)c2)[n+]([O-])c2ccccc2[n+]1[O-]	–	16.9 µM (inactive)	26 µM (inactive)	–	16.3 µM (inactive)	15.7 µM (inactive)	22.5 µM (inactive)	48.9 µM (inactive)	–
CC1=C(C(=O)Nc2cc(=O)n(C)c(=O)n2C)C(c2cccc([N+](=O)[O-])c2)C(C(=O)Nc2cc(=O)n(C)c(=O)n2C)=C(C)N1	> 100 µM (inactive)	80.5 µM (inactive)	–	–	> 100 µM (inactive)	> 100 µM (inactive)	–	> 100 µM (inactive)	–
Nc1nc(N)c2cc(CNc3ccc(C(=O)NC(CC(=O)O)C(=O)O)c(Cl)c3)ccc2n1 (configuration not stated)	0.038 µM (active)	< 0.01 µM (active)	0.0552 µM (active)	> 100 µM (inactive)	–	0.596 µM (active)	–	56 µM (inactive)	–
C=C1C(O)C2(O)OCC34C(CC5C(C)=CC(=O)C(O)C5(C)C23)OC(=O)C(OC(=O)C/C=C(\C)CCCCC)C14 (configuration not stated)	0.0146 µM (active)	0.0125 µM (active)	–	0.0343 µM (active)	–	0.0136 µM (active)	–	0.0145 µM (active)	0.0153 µM (active)
COC(=O)CC(NC(=O)OCc1ccccc1)C(C(=O)OCc1ccccc1)C1(C)OCCO1 (configuration not stated)	36.1 µM (inactive)	23.6 µM (inactive)	39.5 µM (inactive)	–	18.8 µM (inactive)	30.2 µM (inactive)	34.9 µM (inactive)	–	15.8 µM (inactive)
C/C(=N/N)c1ccc2[nH]c3c(C)cc([N+](=O)[O-])c(C)c3c2c1	3.18 µM (inactive)	9.89 µM (inactive)	4.52 µM (inactive)	10.7 µM (inactive)	–	11.3 µM (inactive)	–	–	11.4 µM (inactive)
CC1(O)C(C)(O)C2(C)O[Te]3(OC12C)OC1(C)C(C)(O)C(C)(O)C1(C)O3 (configuration not stated)	33 µM (inactive)	20 µM (inactive)	19.3 µM (inactive)	–	16 µM (inactive)	22.1 µM (inactive)	18.5 µM (inactive)	> 100 µM (inactive)	> 100 µM (inactive)
N#C/C(=C\c1c(O)cc(O)cc1O)C(N)=O	> 100 µM (inactive)	> 100 µM (inactive)	> 100 µM (inactive)	–	> 100 µM (inactive)	–	> 100 µM (inactive)	> 100 µM (inactive)	> 100 µM (inactive)
O/N=C1/C(=C/c2ccc(Cl)c(Cl)c2)CCCC1C(NO)c1ccc(Cl)c(Cl)c1 (configuration not stated)	16.9 µM (inactive)	17.9 µM (inactive)	18.8 µM (inactive)	16.3 µM (inactive)	15.7 µM (inactive)	18.2 µM (inactive)	–	18.7 µM (inactive)	16.3 µM (inactive)
O=C1CCCC2COc3ccc(O)c1c32 (configuration not stated)	> 100 µM (inactive)	> 100 µM (inactive)	> 100 µM (inactive)	–	–	> 100 µM (inactive)	> 100 µM (inactive)	> 100 µM (inactive)	–
CCOC(=O)CSc1nnc(CSc2nc(-c3ccccc3)c(-c3ccccc3)[nH]2)n1-c1ccccc1	> 100 µM (inactive)	15.3 µM (inactive)	> 100 µM (inactive)	–	21.1 µM (inactive)	38.8 µM (inactive)	–	27.9 µM (inactive)	24.3 µM (inactive)
O=C1CCC2(CC1)SCCCS2	> 100 µM (inactive)	> 100 µM (inactive)	> 100 µM (inactive)	–	> 100 µM (inactive)	> 100 µM (inactive)	–	–	> 100 µM (inactive)
Cc1c(Cl)c2ccccc2n1S(=O)(=O)c1ccccc1	71.6 µM (inactive)	37.9 µM (inactive)	38.7 µM (inactive)	–	42.1 µM (inactive)	–	–	–	> 100 µM (inactive)
COc1ccccc1/C=C/C(=O)c1sc(-c2cccnc2)nc1C	> 100 µM (inactive)	> 100 µM (inactive)	> 100 µM (inactive)	76.6 µM (inactive)	–	> 100 µM (inactive)	–	> 100 µM (inactive)	–
Cn1ccnc1CCc1c(Cl)cccc1Cl	> 100 µM (inactive)	> 100 µM (inactive)	> 100 µM (inactive)	51.4 µM (inactive)	> 100 µM (inactive)	> 100 µM (inactive)	–	> 100 µM (inactive)	–
O=C1N[C@H](Cc2c[nH]cn2)C(=O)N2CCC[C@@H]12	> 100 µM (inactive)	> 100 µM (inactive)	> 100 µM (inactive)	–	> 100 µM (inactive)	> 100 µM (inactive)	–	> 100 µM (inactive)	> 100 µM (inactive)
CCCC(C)C[C@@H](C)CC(C)/C=C(\C)c1oc(=O)c(C)c(O)c1C.CC[C@@H](C)C[C@@H](C)C[C@@H](C)/C=C(\C)c1oc(=O)c(C)c(O)c1C (some centres not stated)	13.5 µM (inactive)	16.8 µM (inactive)	18.5 µM (inactive)	–	13.2 µM (inactive)	10 µM (inactive)	–	20.9 µM (inactive)	–
CCCCCCN(N)C(=O)CC#N	87.3 µM (inactive)	32.2 µM (inactive)	> 100 µM (inactive)	> 100 µM (inactive)	> 100 µM (inactive)	> 100 µM (inactive)	98.9 µM (inactive)	> 100 µM (inactive)	–
COC(=O)NC1C(C)OC(OC2C/C=C(/C)C3C=CC4C(OC5CC(OC6CC(O)C(OC7CC(O)C(OC)C(C)O7)C(C)O6)C(O)C(C)O5)C(C)CC(C)C4C3(C)C(=O)C3=C(O)C4(CC(C)C(CO)=CC4/C=C\2C)OC3=O)CC1(C)[N+](=O)[O-] (configuration not stated)	12.7 µM (inactive)	2.5 µM (inactive)	11.4 µM (inactive)	15.1 µM (inactive)	2.7 µM (inactive)	4.43 µM (inactive)	21 µM (inactive)	5.47 µM (inactive)	10.6 µM (inactive)
Oc1ccccc1/C=C/c1csnn1	> 100 µM (inactive)	> 84.1 µM (inactive)	> 100 µM (inactive)	> 100 µM (inactive)	> 100 µM (inactive)	> 100 µM (inactive)	> 100 µM (inactive)	> 100 µM (inactive)	> 100 µM (inactive)
C[N+](C)(C)CC(=O)N/N=C(/Cc1nc2ccc([N+](=O)[O-])cc2nc1O)C(=O)Nc1cc(C(F)(F)F)ccc1Cl	> 100 µM (inactive)	75 µM (inactive)	–	–	–	> 100 µM (inactive)	> 100 µM (inactive)	–	–
Cc1no[n+]([O-])c1/C=N/NS(=O)(=O)c1ccccc1	> 100 µM (inactive)	> 100 µM (inactive)	–	> 100 µM (inactive)	> 100 µM (inactive)	> 100 µM (inactive)	–	–	–
CCOC(=O)c1cnc2cc3cccccc3n2c1=O	> 100 µM (inactive)	35 µM (inactive)	31.8 µM (inactive)	–	> 100 µM (inactive)	–	–	> 100 µM (inactive)	–

Reference: ChEMBL document CHEMBL1201862, “PubChem BioAssay data set” (2004)
